Data as given in ChEMBL document CHEMBL4665650, “Towards a TREK-1/2 (TWIK-Related K+ Channel 1 and 2) dual activator tool compound: Multi-dimensional optimization of BL-1249” (Bioorg Med Chem Lett, 2019).
Blank lines part the entries; values can stand above or below the compound they belong to.

How the values were obtained:
[1] = molecular target: T1, Potassium channel subfamily K member 2 (Homo sapiens) (UniProt O95069); experiment: Activation of human TREK1 at 30 uM by thallium flux mobilization assay relative to control; conditions: filed as activator
T1 sequence (whole entry): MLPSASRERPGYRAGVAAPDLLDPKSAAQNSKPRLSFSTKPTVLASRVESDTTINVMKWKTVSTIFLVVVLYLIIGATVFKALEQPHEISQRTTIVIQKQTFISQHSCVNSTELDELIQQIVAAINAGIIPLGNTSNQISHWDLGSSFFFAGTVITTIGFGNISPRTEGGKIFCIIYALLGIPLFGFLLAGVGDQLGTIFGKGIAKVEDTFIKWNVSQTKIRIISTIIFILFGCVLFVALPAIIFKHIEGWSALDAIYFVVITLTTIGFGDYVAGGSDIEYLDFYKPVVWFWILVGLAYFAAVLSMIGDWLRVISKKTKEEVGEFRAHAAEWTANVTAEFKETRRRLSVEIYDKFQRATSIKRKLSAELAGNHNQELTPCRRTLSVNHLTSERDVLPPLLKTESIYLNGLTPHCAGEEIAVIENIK

[2] = molecular target: T2, Potassium channel subfamily K member 10 (Homo sapiens) (UniProt P57789); experiment: Activation of human TREK2 at 30 uM by thallium flux mobilization assay relative to control; conditions: filed as activator
T2 sequence (whole entry): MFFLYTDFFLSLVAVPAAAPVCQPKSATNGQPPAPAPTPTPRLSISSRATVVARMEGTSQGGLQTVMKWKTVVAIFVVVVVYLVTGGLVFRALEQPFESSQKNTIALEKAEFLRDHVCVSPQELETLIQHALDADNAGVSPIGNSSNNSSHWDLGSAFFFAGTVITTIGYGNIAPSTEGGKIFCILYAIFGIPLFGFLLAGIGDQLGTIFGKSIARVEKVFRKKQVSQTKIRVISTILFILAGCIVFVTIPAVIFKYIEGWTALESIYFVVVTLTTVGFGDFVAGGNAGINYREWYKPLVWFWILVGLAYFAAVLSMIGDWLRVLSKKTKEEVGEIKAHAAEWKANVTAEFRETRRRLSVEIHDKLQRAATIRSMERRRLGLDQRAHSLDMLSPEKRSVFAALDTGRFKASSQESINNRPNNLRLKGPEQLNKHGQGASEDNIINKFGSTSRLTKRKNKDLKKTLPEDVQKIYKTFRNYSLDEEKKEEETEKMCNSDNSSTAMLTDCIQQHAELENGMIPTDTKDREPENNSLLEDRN

[3] = Fraction unbound in human plasma; assay type: ADME, cell-free
[4] = Fraction unbound in rat plasma; assay type: ADME, cell-free
[5] = molecular target: T3, Potassium channel subfamily K member 2 (Homo sapiens, UniProt O95069); experiment: Activation of human TREK1 by thallium flux mobilization assay
T3 sequence (O95069 whole entry): T1 sequence (whole entry)

[6] = molecular target: T4, Potassium channel subfamily K member 10 (Homo sapiens, UniProt P57789); experiment: Activation of human TREK2 by thallium flux mobilization assay
T4 sequence (P57789 whole entry): T2 sequence (whole entry)

[7] = Half life in rat at 0.05 mg/kg, iv administered as cassette dose; assay type: ADME, organism-based; conditions: in vivo
[8] = molecular target: Cysteinyl leukotriene receptor 1 (Homo sapiens) (UniProt Q9Y271); experiment: Displacement of [3H]LTD4 from full length recombinant human CysLT1 Leukotriene receptor expressed in CHO-K1 cells at 30 uM incubated for 30 mins by radiometric scintillation analysis relative to control; assay type: cell-based
Sequence of Cysteinyl leukotriene receptor 1 (Homo sapiens) (Q9Y271 whole entry): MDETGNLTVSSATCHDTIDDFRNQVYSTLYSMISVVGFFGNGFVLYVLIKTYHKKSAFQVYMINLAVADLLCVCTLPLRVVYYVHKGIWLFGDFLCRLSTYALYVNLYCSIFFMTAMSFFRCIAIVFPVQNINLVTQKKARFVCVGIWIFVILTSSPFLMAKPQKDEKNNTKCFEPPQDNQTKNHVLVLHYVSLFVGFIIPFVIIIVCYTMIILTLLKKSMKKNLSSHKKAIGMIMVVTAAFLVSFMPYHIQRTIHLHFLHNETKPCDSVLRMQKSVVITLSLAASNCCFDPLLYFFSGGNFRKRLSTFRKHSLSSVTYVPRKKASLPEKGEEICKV

[9] = molecular target: 5-hydroxytryptamine receptor 1A (Homo sapiens) (UniProt P08908); experiment: Displacement of [3H]-8-OH-DPAT from full length recombinant human 5HT1A receptor expressed in CHO-K1 cells at 30 uM incubated for 60 mins by radiometric scintillation analysis relative to control; assay type: cell-based
[10] = molecular target: Potassium/sodium hyperpolarization-activated cyclic nucleotide-gated channel 4 (Homo sapiens) (UniProt Q9Y3Q4); experiment: Activation of HCN4 (unknown origin) at 30 uM by manual patch clamp method relative to control
Sequence of Potassium/sodium hyperpolarization-activated cyclic nucleotide-gated channel 4 (Homo sapiens) (Q9Y3Q4 whole entry): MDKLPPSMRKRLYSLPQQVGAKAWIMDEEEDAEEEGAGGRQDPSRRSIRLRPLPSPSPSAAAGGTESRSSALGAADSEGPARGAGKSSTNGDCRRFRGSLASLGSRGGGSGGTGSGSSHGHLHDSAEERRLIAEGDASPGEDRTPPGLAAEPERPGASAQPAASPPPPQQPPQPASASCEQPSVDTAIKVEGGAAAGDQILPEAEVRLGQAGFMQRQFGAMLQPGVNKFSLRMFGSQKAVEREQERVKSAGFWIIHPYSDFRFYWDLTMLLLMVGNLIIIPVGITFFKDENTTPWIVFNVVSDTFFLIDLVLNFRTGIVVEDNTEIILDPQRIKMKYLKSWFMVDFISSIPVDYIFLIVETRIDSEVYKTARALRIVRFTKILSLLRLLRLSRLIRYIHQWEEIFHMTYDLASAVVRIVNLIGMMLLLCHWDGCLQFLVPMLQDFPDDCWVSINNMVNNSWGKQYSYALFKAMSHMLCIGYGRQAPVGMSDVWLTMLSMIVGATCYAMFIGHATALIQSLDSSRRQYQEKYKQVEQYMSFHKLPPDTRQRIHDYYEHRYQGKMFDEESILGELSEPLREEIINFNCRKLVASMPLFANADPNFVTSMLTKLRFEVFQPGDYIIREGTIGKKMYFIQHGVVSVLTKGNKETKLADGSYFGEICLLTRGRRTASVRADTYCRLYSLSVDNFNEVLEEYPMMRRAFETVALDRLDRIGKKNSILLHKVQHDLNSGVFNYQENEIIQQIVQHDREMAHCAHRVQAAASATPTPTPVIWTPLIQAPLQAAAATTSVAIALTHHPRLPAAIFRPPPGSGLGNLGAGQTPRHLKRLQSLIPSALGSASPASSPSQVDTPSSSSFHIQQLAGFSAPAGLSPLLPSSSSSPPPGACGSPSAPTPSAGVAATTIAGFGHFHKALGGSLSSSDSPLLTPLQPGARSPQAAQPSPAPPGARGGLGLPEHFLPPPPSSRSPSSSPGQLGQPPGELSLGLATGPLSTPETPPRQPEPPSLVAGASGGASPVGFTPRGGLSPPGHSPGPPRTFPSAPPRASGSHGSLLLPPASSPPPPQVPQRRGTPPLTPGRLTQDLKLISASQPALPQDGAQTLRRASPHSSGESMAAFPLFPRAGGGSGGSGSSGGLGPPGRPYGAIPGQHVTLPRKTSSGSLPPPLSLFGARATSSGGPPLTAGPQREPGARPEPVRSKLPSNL

[11] = molecular target: Androgen receptor (Homo sapiens) (UniProt P10275); experiment: Displacement of [3H]methyltrienolone from human LNCaP cells derived androgen receptor at 30 uM measured after 1200 mins by radiometric scintillation analysis relative to control; assay type: cell-based
[12] = molecular target: Intermediate conductance calcium-activated potassium channel protein 4 (Homo sapiens) (UniProt O15554); experiment: Activation of Kca3.1 (unknown origin) at 30 uM by manual patch clamp method relative to control
[13] = AUC in rat at 3 mg/kg, po; assay type: ADME, organism-based; parameters: dose 3 mg/kg; conditions: in vivo
[14] = molecular target: Inward rectifier potassium channel 2 (Homo sapiens, UniProt P63252); experiment: Activation of Kir2.1 (unknown origin) at 30 uM by manual patch clamp method relative to control
Sequence of Inward rectifier potassium channel 2 (P63252 whole entry): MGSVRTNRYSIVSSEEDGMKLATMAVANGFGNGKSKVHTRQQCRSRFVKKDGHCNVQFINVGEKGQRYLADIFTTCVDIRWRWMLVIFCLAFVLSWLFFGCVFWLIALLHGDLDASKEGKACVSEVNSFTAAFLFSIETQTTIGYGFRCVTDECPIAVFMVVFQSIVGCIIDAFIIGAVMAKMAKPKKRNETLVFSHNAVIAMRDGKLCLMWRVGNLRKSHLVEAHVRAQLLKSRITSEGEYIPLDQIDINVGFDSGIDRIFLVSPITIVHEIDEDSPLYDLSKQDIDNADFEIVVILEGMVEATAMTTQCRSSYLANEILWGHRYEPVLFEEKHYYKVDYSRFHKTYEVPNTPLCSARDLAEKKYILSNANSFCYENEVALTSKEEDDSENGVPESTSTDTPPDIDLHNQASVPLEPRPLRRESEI

Rattus norvegicus [15] = organism: Rattus norvegicus; experiment: Displacement of [3H]GABA from rat brain GABA receptor at 30 uM after 20 mins by radiometric scintillation analysis relative to control
[16] = molecular target: A-type potassium channel modulatory protein KCNIP2 (Homo sapiens) (UniProt Q9NS61); experiment: Inhibition of KCHiP (unknown origin) at 30 uM by manual patch clamp method relative to control
Sequence of A-type potassium channel modulatory protein KCNIP2 (Homo sapiens) (Q9NS61 whole entry): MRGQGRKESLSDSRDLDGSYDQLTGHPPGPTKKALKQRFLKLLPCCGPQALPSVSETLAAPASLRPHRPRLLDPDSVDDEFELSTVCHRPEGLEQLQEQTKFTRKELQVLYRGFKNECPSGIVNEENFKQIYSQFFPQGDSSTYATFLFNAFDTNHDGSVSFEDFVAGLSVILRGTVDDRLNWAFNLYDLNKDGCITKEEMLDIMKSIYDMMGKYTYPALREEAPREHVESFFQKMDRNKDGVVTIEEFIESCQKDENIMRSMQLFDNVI

[17] = Cmax in rat at 3 mg/kg, po; assay type: ADME, organism-based; parameters: route oral, dose 3 mg/kg; conditions: in vivo
Rattus norvegicus [18] = organism: Rattus norvegicus; experiment: Displacement of [35S] dATPalphaS from Wistar rat brain P2Y receptor at 30 uM incubated for 180 mins by radiometric scintillation analysis relative to control; assay type: tissue-based
[19] = Elimination half life in rat at 3 mg/kg, po; assay type: ADME, organism-based; conditions: in vivo, read-out: beta t1/2 (converted)
[20] = molecular target: A-type voltage-gated potassium channel KCND3 (Homo sapiens, UniProt Q9UK17); experiment: Activation of Kv4.3 (unknown origin) at 30 uM by manual patch clamp method relative to control
[21] = molecular target: Potassium voltage-gated channel subfamily KQT member 3 (Homo sapiens) (UniProt O43525); experiment: Inhibition of Kv7.3 (unknown origin) at 30 uM by manual patch clamp method relative to control
Sequence of Potassium voltage-gated channel subfamily KQT member 3 (Homo sapiens) (O43525 whole entry): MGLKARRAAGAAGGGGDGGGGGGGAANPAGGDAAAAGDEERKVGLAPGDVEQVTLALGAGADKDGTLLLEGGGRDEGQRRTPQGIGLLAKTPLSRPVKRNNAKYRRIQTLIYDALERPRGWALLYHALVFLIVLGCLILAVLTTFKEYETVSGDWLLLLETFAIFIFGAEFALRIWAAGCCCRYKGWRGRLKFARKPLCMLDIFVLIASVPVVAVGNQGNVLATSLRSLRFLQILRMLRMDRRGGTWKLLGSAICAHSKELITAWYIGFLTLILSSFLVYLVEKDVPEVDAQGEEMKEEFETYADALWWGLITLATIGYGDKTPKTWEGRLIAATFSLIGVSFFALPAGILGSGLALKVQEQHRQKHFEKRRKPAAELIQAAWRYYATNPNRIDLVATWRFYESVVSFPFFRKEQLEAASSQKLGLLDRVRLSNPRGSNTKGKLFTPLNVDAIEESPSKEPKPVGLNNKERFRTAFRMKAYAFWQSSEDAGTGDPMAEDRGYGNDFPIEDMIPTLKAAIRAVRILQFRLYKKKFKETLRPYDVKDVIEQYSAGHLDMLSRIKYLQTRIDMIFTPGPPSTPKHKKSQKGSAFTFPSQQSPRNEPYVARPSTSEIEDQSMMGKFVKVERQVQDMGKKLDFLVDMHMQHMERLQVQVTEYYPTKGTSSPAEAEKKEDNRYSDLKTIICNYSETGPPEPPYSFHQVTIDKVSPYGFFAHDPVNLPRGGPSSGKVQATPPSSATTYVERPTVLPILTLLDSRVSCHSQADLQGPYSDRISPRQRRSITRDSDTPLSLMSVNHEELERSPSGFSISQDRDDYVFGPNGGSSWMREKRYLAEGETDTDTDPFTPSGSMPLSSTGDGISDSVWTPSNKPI

Kv7.1 = Kv7.1 (Homo sapiens, UniProt P51787); experiment: Inhibition of Kv7.1 (unknown origin) at 30 uM by manual patch clamp method relative to control
Sequence of Kv7.1 (P51787 whole entry): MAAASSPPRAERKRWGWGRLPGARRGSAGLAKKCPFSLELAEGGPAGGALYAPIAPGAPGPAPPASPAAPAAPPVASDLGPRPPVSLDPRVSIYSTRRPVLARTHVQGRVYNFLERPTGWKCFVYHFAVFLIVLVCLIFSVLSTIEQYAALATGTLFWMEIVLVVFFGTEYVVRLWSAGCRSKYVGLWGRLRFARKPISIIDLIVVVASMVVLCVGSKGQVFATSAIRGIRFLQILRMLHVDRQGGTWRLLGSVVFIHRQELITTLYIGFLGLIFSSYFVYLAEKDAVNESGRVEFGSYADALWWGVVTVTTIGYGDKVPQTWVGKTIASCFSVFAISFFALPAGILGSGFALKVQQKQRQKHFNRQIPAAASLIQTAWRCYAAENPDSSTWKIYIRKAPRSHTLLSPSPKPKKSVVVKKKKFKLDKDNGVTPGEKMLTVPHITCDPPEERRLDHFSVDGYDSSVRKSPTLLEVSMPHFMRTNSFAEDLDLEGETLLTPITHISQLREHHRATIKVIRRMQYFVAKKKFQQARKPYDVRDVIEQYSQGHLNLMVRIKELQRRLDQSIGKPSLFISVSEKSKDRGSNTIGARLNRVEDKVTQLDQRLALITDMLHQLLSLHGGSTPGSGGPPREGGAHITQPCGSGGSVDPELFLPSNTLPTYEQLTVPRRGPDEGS

[22] = molecular target: Sodium-dependent dopamine transporter (Homo sapiens) (UniProt Q01959); experiment: Displacement of [125I]RTI-55 from full length recombinant human dopamine transporter expressed in CHO-S cells at 30 uM after 180 mins by radiometric scintillation analysis relative to control; assay type: cell-based
[23] = molecular target: Neuronal acetylcholine receptor subunit alpha-7 (Homo sapiens) (UniProt P36544); experiment: Inhibition of alpha7 nAChR (unknown origin) at 30 uM by manual patch clamp method relative to control
[24] = molecular target: Potassium voltage-gated channel subfamily A member 3 (Homo sapiens) (UniProt P22001); experiment: Inhibition of Kv1.3 (unknown origin) at 30 uM by manual patch clamp method relative to control
Sequence of Potassium voltage-gated channel subfamily A member 3 (Homo sapiens) (P22001 whole entry): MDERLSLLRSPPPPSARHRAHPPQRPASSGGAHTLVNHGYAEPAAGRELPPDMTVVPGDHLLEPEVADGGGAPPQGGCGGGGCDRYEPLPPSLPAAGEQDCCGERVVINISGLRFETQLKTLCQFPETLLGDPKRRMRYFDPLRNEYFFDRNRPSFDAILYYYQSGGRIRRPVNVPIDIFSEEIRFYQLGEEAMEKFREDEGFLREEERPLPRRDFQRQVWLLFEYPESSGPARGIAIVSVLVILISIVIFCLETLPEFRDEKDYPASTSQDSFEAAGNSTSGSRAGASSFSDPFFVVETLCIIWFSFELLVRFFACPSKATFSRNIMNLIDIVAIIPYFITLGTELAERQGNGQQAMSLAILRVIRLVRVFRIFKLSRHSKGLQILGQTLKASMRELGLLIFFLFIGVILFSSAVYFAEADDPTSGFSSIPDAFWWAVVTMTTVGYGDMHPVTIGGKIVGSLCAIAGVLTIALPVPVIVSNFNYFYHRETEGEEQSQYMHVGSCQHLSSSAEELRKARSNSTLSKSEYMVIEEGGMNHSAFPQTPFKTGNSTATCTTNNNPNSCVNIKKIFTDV

[25] = Fraction unbound in mouse plasma; assay type: ADME, cell-free
[26] = molecular target: Adenosine receptor A2a (Homo sapiens) (UniProt P29274); experiment: Displacement of [3H]CGS-21680 from full length recombinant human A2A receptor expressed in HEK293 cells at 30 uM measured after 90 mins by radiometric scintillation analysis relative to control; assay type: cell-based
Rattus norvegicus [27] = organism: Rattus norvegicus; experiment: Displacement of [125I]-Triiodothyronine from thyroid hormone receptors in rat at 30 uM incubated for 1080 mins by radiometric scintillation analysis relative to control
[28] = molecular target: Adenosine receptor A1 (Homo sapiens) (UniProt P30542); experiment: Displacement of [3H]DPCPX from recombinant full length human adenosine A1 receptor expressed in CHO-K1 cells at 30 uM incubated for 90 mins by radiometric scintillation analysis relative to control; assay type: cell-based
Sequence of Adenosine receptor A1 (Homo sapiens) (P30542 whole entry): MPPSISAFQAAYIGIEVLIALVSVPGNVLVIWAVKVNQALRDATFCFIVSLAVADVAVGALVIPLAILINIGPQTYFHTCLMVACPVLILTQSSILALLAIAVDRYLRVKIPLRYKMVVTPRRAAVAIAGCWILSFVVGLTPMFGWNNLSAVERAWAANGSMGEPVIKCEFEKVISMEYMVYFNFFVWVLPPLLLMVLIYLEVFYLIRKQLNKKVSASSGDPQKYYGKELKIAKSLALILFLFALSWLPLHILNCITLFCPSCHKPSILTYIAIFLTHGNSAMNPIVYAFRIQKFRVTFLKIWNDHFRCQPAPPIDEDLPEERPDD

[29] = molecular target: Sodium-dependent noradrenaline transporter (Homo sapiens) (UniProt P23975); experiment: Displacement of [125I]RTI-55 from full length recombinant human NET expressed in MDCK cells at 30 uM after 180 mins by radiometric scintillation analysis relative to control; assay type: cell-based

Activity [1]: 109%
Activity [2]: 133%
fraction unbound [3]: < 0.001
fraction unbound [4]: 0.001
EC50 [5]: 5.2 µM
EC50 [6]: 7.7 µM
half-life [7]: 3 min
Compound: c1ccc(-c2nnn[nH]2)c(Nc2cccc3c2CCCC3)c1

inhibition [8]: 69%
Activity [1]: 101%
inhibition [9]: 79%
Activity [10]: -32%
inhibition [11]: 79%
Activity [2]: 84%
Activity [12]: -9%
AUC [13]: 60.6 µM·h
Activity [14]: -16%
inhibition (Rattus norvegicus [15]): 70%
fraction unbound [3]: 0.003
inhibition [16]: 76%
Cmax [17]: 8.8 µM
inhibition (Rattus norvegicus [18]): 90%
fraction unbound [4]: 0.041
half-life [19]: 378 min
Activity [20]: -21%
inhibition [21]: 39%
inhibition at 30 µM (Kv7.1): 57%
EC50 [5]: 6.1 µM
inhibition [22]: 67%
inhibition [23]: 7%
inhibition [24]: 94%
EC50 [6]: 5.5 µM
fraction unbound [25]: 0.052
inhibition [26]: 55%
inhibition (Rattus norvegicus [27]): 79%
inhibition [28]: 70%
inhibition [29]: 77%
Compound: O=C(Nc1cc(F)c(Br)cc1C(=O)O)c1ccc(SC(F)(F)F)cc1
